For 4 compounds, Ki, IC50 and GI50 results are on record in paper PMC11357446, “Searching for Novel HDAC6/Hsp90 Dual Inhibitors with Anti-Prostate Cancer Activity: In Silico Screening and In Vitro Evaluation” (Pharmaceuticals, 2024).

What is called Ki is the equilibrium dissociation constant of an inhibitor or competing ligand from its target. As a reminder, the IC50 is the midpoint of a concentration-inhibition curve. As a reminder, the GI50 is the concentration that inhibits growth by half.

For one test, the target named is Hsp90 (UniProt ID: P07900). On the set-up: method as in ChEMBL [62]. The conditions noted are these: ChEMBL record on recombinant protein, ref ChEMBL [62], cited from earlier work; for IC50: read-out: Hsp90 IC50 (Standard Value).
The next test concerns the target HDAC6 (UniProt ID: Q9UBN7). Further details: method as in ChEMBL [62]. The conditions noted are these: ChEMBL record on recombinant protein; ref ChEMBL [62]; read-out: HDAC6 IC50 (Standard Value); cited from earlier work.
The next test has as its target T1, HDAC6 recombinant enzyme (Homo sapiens, UniProt Q9UBN7).
T1 sequence (Q9UBN7 1-1215): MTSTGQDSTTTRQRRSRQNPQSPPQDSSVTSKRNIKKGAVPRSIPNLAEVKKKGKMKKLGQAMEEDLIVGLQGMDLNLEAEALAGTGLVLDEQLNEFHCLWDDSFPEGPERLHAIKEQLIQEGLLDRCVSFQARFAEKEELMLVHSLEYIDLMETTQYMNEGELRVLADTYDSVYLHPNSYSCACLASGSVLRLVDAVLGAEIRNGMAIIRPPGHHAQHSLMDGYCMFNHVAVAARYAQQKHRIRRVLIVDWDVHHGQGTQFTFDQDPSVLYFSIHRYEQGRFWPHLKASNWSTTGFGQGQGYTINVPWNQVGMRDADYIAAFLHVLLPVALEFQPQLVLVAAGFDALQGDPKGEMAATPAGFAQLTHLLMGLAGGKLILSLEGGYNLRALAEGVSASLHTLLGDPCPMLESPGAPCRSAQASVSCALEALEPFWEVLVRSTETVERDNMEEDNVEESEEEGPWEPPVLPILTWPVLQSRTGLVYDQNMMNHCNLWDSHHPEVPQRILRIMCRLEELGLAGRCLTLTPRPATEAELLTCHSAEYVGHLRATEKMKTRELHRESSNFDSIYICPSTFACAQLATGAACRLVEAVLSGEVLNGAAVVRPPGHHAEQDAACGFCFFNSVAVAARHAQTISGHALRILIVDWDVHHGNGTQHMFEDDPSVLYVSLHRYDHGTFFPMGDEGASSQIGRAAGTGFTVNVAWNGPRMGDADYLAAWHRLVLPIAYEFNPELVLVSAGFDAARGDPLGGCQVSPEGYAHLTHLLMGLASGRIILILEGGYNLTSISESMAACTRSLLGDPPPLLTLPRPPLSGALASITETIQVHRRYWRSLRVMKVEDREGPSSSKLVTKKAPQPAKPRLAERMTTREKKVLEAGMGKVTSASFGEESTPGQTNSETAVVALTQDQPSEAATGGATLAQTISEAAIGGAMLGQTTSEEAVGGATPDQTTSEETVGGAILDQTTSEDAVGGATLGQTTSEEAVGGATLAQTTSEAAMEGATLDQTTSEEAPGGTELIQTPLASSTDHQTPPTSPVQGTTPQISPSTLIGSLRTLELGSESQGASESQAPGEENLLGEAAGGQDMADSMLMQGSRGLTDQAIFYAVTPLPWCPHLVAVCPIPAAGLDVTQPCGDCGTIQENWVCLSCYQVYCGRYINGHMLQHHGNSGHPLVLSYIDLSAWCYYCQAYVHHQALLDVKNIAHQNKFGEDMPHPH
Description: Fluorimetric HDAC6 assay. In kind it is biochemical. To be noted: singlicate. As to the method:
In vitro assessments of compounds on the HDAC6 enzyme were performed, as described in our previous works. […] The blank employed for curve fitting was evaluated on a solution of the buffer containing a concentration of […] of DMSO. IC50 values were calculated by using the GraphPad Prism 4 program based on a sigmoidal dose–response equation.

Test [1] deals with LNCaP prostate cancer cells. Nature of the test: Cell viability assay (PrestoBlue) on LNCaP cells. The conditions noted are these: Homo sapiens, LNCaP, 72 h, 72 h treatment; PrestoBlue; mean of three independent experiments ± SEM; read-out: LNCaP GI50. It counts as cell-based, human. Here is the method:
(§1) The human prostate cancer cell line PC-3 (ATCC Cat# CRL-1435) was grown in Ham’s F12 (Biowest, Nuaillé, France) medium, while the human prostate cancer cell line LNCaP (ATCC Cat# CRL-1740) was grown in RPMI 1640 (Biowest, Nuaillé, France) medium. Both media were supplemented with 10% Fetal Bovine Serum (FBS, Gibco, Fisher Scientific Italia, Segrate, Italy), 2 mM glutamine, 100 U/mL penicillin, and 100 μg/mL streptomycin. PC-3 and LNCaP cells were maintained at 37 °C in a humidified 5% CO2 atmosphere.
(§2) PC-3 and LNCaP cells were seeded at a density of 4000 and 6000 cells/well into a 96-well plate, respectively, together with a calibration curve of known cell numbers. The following day, the cells were treated with the indicated test compounds at different concentrations starting at 75μM with 2-fold serial dilutions. Cell viability was evaluated after 72h by colorimetric MTT (PC-3) or PrestoBlue™ (LNCaP) cell viability reagents. A total of 0.5 mg/mL of thiazolyl blue tetrazolium bromide (MTT) (Sigma-Aldrich, St. Louis, MO, USA) in Ham’s F12 medium was added to the wells, and the plate was incubated at 37 °C for 2 h. Medium containing unconverted MTT was removed, and 100 μL of MTT solvent (4 mM HCl, 0.1% NP40, in isopropyl alcohol) was added to the wells in order to solubilize MTT crystals. After 15 min of incubation at room temperature, the absorbance values at 570 nm were obtained with a Multiskan FC Microplate Photometer (Thermo Fisher Scientific, Waltham, MA, USA). PrestoBlue reagent (#A13261, Thermo Fisher Scientific, Waltham, MA, USA) was added to the medium (1:10 v/v) and incubated for 1 h at 37 °C. Cell viability was calculated by quantifying PrestoBlue reduction by measuring the absorbance at 570 and 620 nm, according to the manufacturer’s protocol. The viability of untreated cells was arbitrarily set at 100%, and the concentration at which cellular growth is inhibited by 50% (GI50) was determined. Three independent experiments were performed.

For test [2], the system named is PC-3 prostate cancer cells. Nature of the test: Cell viability assay (MTT) on PC-3 cells. It counts as cell-based, human. The conditions noted are these: Homo sapiens, PC-3, 72 h, 72 h treatment; MTT; mean of three independent experiments ± SEM; read-out: PC-3 GI50. Here is the method:
as §1, §2

In the case of `CCNC(=O)c1noc(-c2cc(Cl)c(O)cc2O)c1-c1ccc(CN2CCOCC2)cc1C` [CHEMBL4060353], the inhibition constant (Ki) on Hsp90 (read-out: Hsp90 Ki (Standard Value)) was 32 nM. Turning to `CC(C)c1cc(-c2onc(C(=O)N[C@@H](C(=O)N3CC(F)(F)C3)C(C)C)c2-c2ccc(CN3CCOCC3)cc2)c(O)cc1O` [CHEMBL4096929], the IC50 in the test with Hsp90 was 39 nM. As to `CC(C)c1cc(C(=O)N2Cc3ccc(NCc4ccc(C(=O)NO)cc4)cc3C2)c(O)cc1O` [CHEMBL4782478], the half-maximal inhibitory concentration (IC50) is 33.3 nM with HDAC6 and 66 nM in the test with Hsp90. With `N#Cc1ccc(NC(=O)c2cccc(-c3noc(C(F)(F)F)n3)c2)c(O)c1` [Compound 4], the IC50 on HDAC6 recombinant enzyme was found to be 17000 nM. In addition, the GI50 in test [1] is 9500 ± 700 nM; in test [2], 9500 ± 500 nM.
